Patent US10822656B2, “Methods and systems for high-throughput toxicity screening of a compound using mahalanobis values” (priority 2017, dated 2020)

Test system: human hepatocytes (cell lines Hu1153, Hu1154, Hu1156, Hu1164)
Assay: Transcriptomics Mahalanobis distance (MD) toxicity analysis of hepatocytes exposed in-vitro
Format: cell-based
Protocol: In one embodiment, four human donors were used to provide four independent cell lines of hepatocytes.
A number of the 192 genes were analyzed using more than one probe and as a result there were 465 different measurements or variables for each experiment. […] PPARα are nuclear receptor proteins of the hepatocyte that regulate gene expression through transcription factors and are essential in the regulation of lipid metabolism.
The MD is calculated as follows (Taguchi & R. Jungulum, 2002): MDj−Dj^2=Z′ijC^−1Zij, and Equation 1: Zij=(Xij−mi)/si Equation 2: Xij=value of the ith characteristic (gene) of the jth observation (experiment) mi=mean of the ith characteristic (gene) si=standard deviation of the ith characteristic (gene) Zij=(z1j, z2j, z3j, . . . , zkj) standardized vector of the standardized values of the Xij Zij′=transpose of the Zij standardized vector C^−1=inverse of the correlation matrix k=total number of gene measurements (e.g. 465 variables).
Data must be collected to identify the reference group from the unstressed cells. […] The MS will be determined by the normal group's mean and standard deviation vector, and the correlation matrix. The reference group will be referred to as the healthy/normal group. This is the most important aspect of the approach, as this MS will be the reference point in n-space. It is used to compare stressed hepatocyte data collected from the perturbed experiments. The measurement scale extends from the centroid of the MS and is typically one unit distance away. The centroid of the MS is the zero point for the measurement scale. The larger the Mahalanobis distance (MD) number the further it is from the centroid of the Mahalanobis space and the higher the risk from exposure. The Mahalanobis distance for each perturbed experiment will be derived from information describing the MS and will be shown below. The MD is a value that describes the relationship between the normal group and the experiment. As hepatocyte cells are stressed by varying concentrations and times of exposure, the same variables that were measured to establish the MS for the normal group will be used to determine a MD number for the experimental data. […] This MD number will be indicative of the experiments generalized distance from the centroid of the healthy/normal group. As concentration and time of exposure increases the MD number for that experiment could increase or decrease, depending on whether the stress of the genes are increasing or decreasing. In general, unstressed hepatocytes tend to look quite similar to the healthy/normal group, while stressed hepatocytes tend to look quite different from the healthy/normal group and will have a higher MD number. In addition, the changes in correlation structure among the stressed hepatocytes strongly affect the MD number. In the case where a hepatocyte's MD number reaches a predetermined high threshold value, genes may start to mutate rapidly. If the MD number becomes similar to those of the healthy/normal group, the risk associated to exposure by a particular compound could be considered a low risk from exposure.
Referring now to FIG. 14, in one embodiment, 20 different experiments were conducted to build the healthy/normal group where the cells were not exposed to chemical, e.g. GW7647. FIG. 14 is an illustration of a snapshot of the database of Normal Unexposed Observation Data where the transcriptomics data of four cell lines—1153, 1154, 1156, and 1164—are provided across five time periods—2, 6, 12, 24, and 72 hours.
This baseline information is used to determine the amount of stress the exposed cells are experiencing from the reference cell pattern of unstressed cells—the healthy/normal group. All the data collected in the 120 different experiments and 465 variables, used the same units of measure consistent with measuring differential gene expression data. […]

CC(C)(Sc1ccc(CCN(CCCCC2CCCCC2)C(=O)NC2CCCCC2)cc1)C(=O)O [GW7647]
share of the 192 significant genes showing up-regulation: Over 80% | threshold level (minimum exposure time with significant response) (0.001 μM of concentration): greater than 72 hours | threshold level (minimum exposure time with significant response) (0.01 μM of concentration): greater than 72 hours | threshold level (minimum exposure time with significant response) (1 μM of concentration): 2 h | threshold level (minimum exposure time with significant response) (10 μM of concentration): 2 h | threshold level (minimum concentration with significant response, p 0.05) (2 hours of exposure): 1 µM | threshold level (minimum concentration with significant response, p 0.05) (6 hours of exposure): 0.1 µM | threshold level (minimum concentration with significant response, p 0.05) (12 hours of exposure): 0.1 µM | threshold level (minimum concentration with significant response, p 0.05) (24 hours of exposure): 0.1 µM | threshold level (minimum concentration with significant response, p 0.05) (72 hours of exposure): 0.1 µM | MD number relative to baseline MD number of 18.05 (72 hours of exposure, 10 μM, mean of four cell lines): 8.4 times | stress versus liver cells not exposed (significance of MD number) (concentration level 0.01 μM): no significant difference in stress | stress versus liver cells not exposed (significance of MD number) (concentration level 001 μM (so in the source)): no significant difference in stress | trend of MD number with time and concentration (human cell line 1153, similar for 1154, 1156, 1164): increases | trend of average MD number with exposure and concentration (mean of four human cell lines, 465 variables): increase | mean MD number (mean of four human cell lines, 72 hours of exposure, 10 μM, 465 variables): 151.76 | trend of average MD number with exposure and concentration (reduced sample set, only 10 genes, mean of four human cell lines): increase | genes of significance that exhibited a reaction, of 14,000 genes examined by micro-array (varying times and concentrations): 192 genes
